# Publication PMC2999670 (The Journal of steroid biochemistry and molecular biology, 2010)
# Numbering of substitutions follows the chain as printed. Like-named read-outs stand apart in the source and are kept apart here.
# Key:
# [1] = target: T1, H156Y-1 mutant of 3β-HSD1 (Homo sapiens, UniProt P14060, H157Y); test: Michaelis-Menten kinetics of 3β-HSD substrate; assay type: biochemical; details: Table 4; substrate DHEA 3-100 μM, NAD+ 200 μM, 27° C, pH 7.4
# T1 sequence (P14060 1-373 H157Y): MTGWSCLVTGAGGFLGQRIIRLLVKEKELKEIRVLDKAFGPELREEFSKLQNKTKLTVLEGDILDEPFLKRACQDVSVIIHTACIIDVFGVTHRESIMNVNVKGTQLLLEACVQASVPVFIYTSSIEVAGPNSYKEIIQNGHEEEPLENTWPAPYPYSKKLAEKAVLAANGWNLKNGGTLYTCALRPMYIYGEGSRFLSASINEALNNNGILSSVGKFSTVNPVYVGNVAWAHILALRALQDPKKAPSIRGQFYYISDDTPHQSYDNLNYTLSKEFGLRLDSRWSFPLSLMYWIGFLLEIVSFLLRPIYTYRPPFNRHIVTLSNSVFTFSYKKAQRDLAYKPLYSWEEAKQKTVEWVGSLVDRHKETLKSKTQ
# human 3β-HSD1 [2] = target: T2, human 3β-HSD1 (Homo sapiens, UniProt P14060); test: Michaelis-Menten kinetics of 3β-HSD substrate; assay type: biochemical; details: pH 7.4
# human 3β-HSD2 [3] = target: T3, human 3β-HSD2 (Homo sapiens, UniProt P26439); test: Michaelis-Menten kinetics of 3β-HSD substrate; assay type: biochemical; details: pH 7.4
# T3 sequence (P26439 1-372): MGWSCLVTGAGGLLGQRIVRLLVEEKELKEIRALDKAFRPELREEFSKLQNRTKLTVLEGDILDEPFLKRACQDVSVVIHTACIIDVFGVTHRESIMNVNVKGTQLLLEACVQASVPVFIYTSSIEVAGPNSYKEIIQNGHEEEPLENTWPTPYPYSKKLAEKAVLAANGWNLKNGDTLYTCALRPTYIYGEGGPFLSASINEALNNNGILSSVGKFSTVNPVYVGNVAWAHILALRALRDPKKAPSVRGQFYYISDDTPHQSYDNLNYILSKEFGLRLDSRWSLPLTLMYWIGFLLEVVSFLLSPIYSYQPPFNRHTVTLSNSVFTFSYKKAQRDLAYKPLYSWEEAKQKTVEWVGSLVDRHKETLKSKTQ
# [4] = target: T4, R195P-1 mutant of 3β-HSD1 (Homo sapiens, UniProt P14060, R196P); test: Michaelis-Menten kinetics of 3β-HSD substrate; assay type: biochemical; details: Table 2, substrate DHEA 1–100 μM, NAD+ 0.2 mM, pH 7.4
# T4 sequence (P14060 1-373 R196P): T1 sequence (P14060 1-373 H157Y) with Y157H, R196P
# [5] = target: T5, P195R-2 mutant of 3β-HSD2 (Homo sapiens, UniProt P26439, P195R); test: Michaelis-Menten kinetics of 3β-HSD substrate; assay type: biochemical; details: Table 2, substrate DHEA 1–100 μM, NAD+ 0.2 mM, pH 7.4
# T5 sequence (P26439 1-372 P195R): T3 sequence (P26439 1-372) with P195R
# [6] = test system: MCF-7 Tet-off 3β-HSD2 aromatase cells; details: read-out: IC50, proliferation; DHEA-stimulated growth; cited from earlier work
# [7] = target: T1, H156Y-1 mutant of 3β-HSD1; test: Inhibition of 3β-HSD activity of purified enzyme, Dixon analysis; assay type: biochemical
# human 3β-HSD2 [8] = target: T3, human 3β-HSD2; test: as above; assay type: biochemical
# [9] = test system: other enzymes in steroidogenesis (e.g., 17β-HSD); details: cited from earlier work
# [10] = test system: MCF-7 Tet-off 3β-HSD1 aromatase cells; details: cited from earlier work
# human 3β-HSD1 [11] = target: T2, human 3β-HSD1; test: Inhibition of 3β-HSD activity of purified enzyme, Dixon analysis; assay type: biochemical
# [12] = test system: MCF-7 Tet-off 3β-HSD2 aromatase cells; details: read-out: EC50, stimulation of growth; cited from earlier work
# [13] = test system: MCF-7 Tet-off 3β-HSD1 aromatase cells; details: read-out: EC50, stimulation of growth; cited from earlier work
# MCF-7 cells = test: Proliferation in the absence of DHEA substrate; assay type: cell-based, human
# [14] = test system: MCF-7 Tet-off 3β-HSD2 aromatase cells; test: Inhibition of DHEA-stimulated proliferation; assay type: cell-based, human; details: for IC50: Homo sapiens, MCF7, 240 h, read-out: IC50, proliferation; for inhibition of growth in the presence of doxycycline: doxycycline 10 ng/ml, DHEA 5.0 nM
# [15] = test system: MCF-7 Tet-off 3β-HSD1 aromatase cells; test: Inhibition of DHEA-stimulated proliferation; details: for inhibition of growth in the presence of doxycycline: doxycycline 10 ng/ml, DHEA 5.0 nM
# [16] = target: T4, R195P-1 mutant of 3β-HSD1; test: Inhibition of 3β-HSD activity of purified enzyme, Dixon analysis; assay type: biochemical
# [17] = Table 2, substrate DHEA 1–100 μM, NAD+ 0.2 mM
# [18] = Table 4, substrate DHEA 3-100 μM, NAD+ 200 μM, 27° C
# [19] = ratio of proliferation IC50 values
# T2 sequence (P14060 whole entry): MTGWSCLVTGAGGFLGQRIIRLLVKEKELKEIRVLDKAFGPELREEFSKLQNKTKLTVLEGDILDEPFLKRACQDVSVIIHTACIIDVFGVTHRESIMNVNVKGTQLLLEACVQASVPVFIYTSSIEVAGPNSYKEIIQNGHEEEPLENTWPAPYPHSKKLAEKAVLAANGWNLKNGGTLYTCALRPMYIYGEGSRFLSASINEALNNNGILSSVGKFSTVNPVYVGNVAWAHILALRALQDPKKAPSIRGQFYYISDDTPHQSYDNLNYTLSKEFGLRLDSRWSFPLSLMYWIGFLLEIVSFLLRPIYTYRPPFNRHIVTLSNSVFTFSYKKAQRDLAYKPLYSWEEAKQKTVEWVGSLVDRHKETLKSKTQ
smiles,measurement,setting,value
"C[C@]12CC[C@H](O)CC1=CC[C@@H]1[C@@H]2CC[C@]2(C)C(=O)CC[C@@H]12 [DHEA, dehydroepiandrosterone]",3β-HSD kcat,[1],0.118 s⁻¹
same,3β-HSD kcat,human 3β-HSD1 [2]; [17],0.055 s⁻¹
same,3β-HSD kcat,human 3β-HSD1 [2]; [18],0.055 s⁻¹
same,3β-HSD kcat,human 3β-HSD2 [3]; [17],0.145 s⁻¹
same,3β-HSD kcat,human 3β-HSD2 [3]; [18],0.118 s⁻¹
same,3β-HSD kcat,[4],0.128 s⁻¹
same,Km,[4]; read-out: 3β-HSD Km,10.7 µM
same,3β-HSD kcat,[5],0.0933 s⁻¹
same,Km,[5]; read-out: 3β-HSD Km,7.7 µM
C[C@]1(O)CC[C@H]2[C@@H]3CC[C@@]45O[C@]4(C)C(O)=C(C#N)C[C@]5(C)[C@H]3CC[C@@]21C [epostane],IC50,[6],2.4 µM
same,Ki,[7],1.18 µM
same,Ki,human 3β-HSD2 [8],0.98 µM
same,effect on other enzymes in steroidogenesis,[9],no effect
same,fold higher affinity vs MCF7 Tet-off 3β-HSD2 aromatase cells,[10]; [19],12 fold
same,IC50,"[10]; read-out: IC50, proliferation, DHEA-stimulated growth",0.2 µM
same,Ki,human 3β-HSD1 [11],0.07 µM
C[C@]12CC[C@@H]3c4ccc(O)cc4CC[C@H]3[C@@H]1CC[C@@H]2O [estradiol],EC50,[12],0.00032 µM
same,EC50,[13],0.00024 µM
C[C@]12CC[C@@H]3c4ccc(O)cc4CC[C@H]3[C@@H]1CCC2=O [estrone],EC50,[12],0.00034 µM
same,EC50,[13],0.00039 µM
N#Cc1ccc(C(c2ccc(C#N)cc2)n2cncn2)cc1 [letrozole],stimulation of proliferation / ER-agonist activity,MCF-7 cells,Neither trilostane nor letrozole stimulated the proliferation
same,IC50,[14],0.0009 µM
same,inhibition of growth in the presence of doxycycline,[14],little change in rate
same,inhibition of growth in the presence of doxycycline,[15],little change in rate
"C[C@]12CC[C@H]3[C@@H](CC[C@@]45O[C@@H]4C(O)=C(C#N)C[C@]35C)[C@@H]1CC[C@@H]2O [trilostane, 2α-cyano-4α ,5α-epoxy-17β-ol-androstane-3-one]",stimulation of proliferation / ER-agonist activity,MCF-7 cells,Neither trilostane nor letrozole stimulated the proliferation
same,mode of inhibition,human 3β-HSD2 [8]; Dixon analysis,noncompetitive
same,IC50,[14],4.9 µM
same,inhibition of growth in the presence of doxycycline,[14],greatly attenuated
same,IC50,"[15]; Homo sapiens, MCF7, 240 h, read-out: IC50, proliferation",0.3 µM
same,inhibition of growth in the presence of doxycycline,[15],greatly attenuated
same,fold higher affinity vs MCF7 Tet-off 3β-HSD2 aromatase cells,[15]; [19],16 fold
same,effect on other enzymes in steroidogenesis,[9],no effect
same,Ki,[16],2.56 ± 0.22 µM
same,mode of inhibition,[16]; Dixon analysis,noncompetitive
same,fold lower Ki for 3β-HSD1 compared to 3β-HSD2,human 3β-HSD1 [11]; competitive 3β-HSD1 vs noncompetitive 3β-HSD2,16 fold
